Data from patent publication US20250320204A1 (RIBOSCIENCE LLC, priority 2023, published 2025).

What follows are compounds tested against T1, ENPP1 (Homo sapiens, UniProt P22413) (assay: Measurement of pNP-TMP hydrolysis by ENPP1). Conditions: pNP-TMP substrate 500 μM, Km 232 μM; Ki from IC50 by Cheng-Prusoff.
T1 sequence (P22413 1-925): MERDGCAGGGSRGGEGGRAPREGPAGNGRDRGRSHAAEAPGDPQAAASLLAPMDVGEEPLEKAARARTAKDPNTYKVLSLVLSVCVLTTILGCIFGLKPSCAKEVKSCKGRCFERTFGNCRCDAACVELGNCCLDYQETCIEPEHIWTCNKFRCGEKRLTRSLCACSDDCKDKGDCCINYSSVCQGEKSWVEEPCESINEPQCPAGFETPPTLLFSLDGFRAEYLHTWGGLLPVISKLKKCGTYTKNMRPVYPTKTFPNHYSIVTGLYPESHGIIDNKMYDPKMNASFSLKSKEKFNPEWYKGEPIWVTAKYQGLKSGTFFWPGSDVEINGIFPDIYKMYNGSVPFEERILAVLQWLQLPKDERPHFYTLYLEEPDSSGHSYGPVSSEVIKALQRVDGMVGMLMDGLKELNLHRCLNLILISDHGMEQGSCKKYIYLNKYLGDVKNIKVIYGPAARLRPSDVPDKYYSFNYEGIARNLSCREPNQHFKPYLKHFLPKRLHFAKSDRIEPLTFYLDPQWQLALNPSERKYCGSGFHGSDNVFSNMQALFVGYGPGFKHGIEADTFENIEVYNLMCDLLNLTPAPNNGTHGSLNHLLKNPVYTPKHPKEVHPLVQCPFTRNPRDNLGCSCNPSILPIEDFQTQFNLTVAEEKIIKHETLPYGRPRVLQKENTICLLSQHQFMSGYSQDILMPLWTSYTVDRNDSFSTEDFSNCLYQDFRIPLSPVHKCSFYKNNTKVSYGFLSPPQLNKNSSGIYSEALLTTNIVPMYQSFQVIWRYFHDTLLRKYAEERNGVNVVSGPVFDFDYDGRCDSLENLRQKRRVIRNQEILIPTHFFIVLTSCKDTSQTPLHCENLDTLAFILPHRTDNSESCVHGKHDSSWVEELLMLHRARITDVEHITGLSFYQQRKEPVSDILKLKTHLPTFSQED
Format: biochemical
Description: Measurement of pNP-TMP hydrolysis by ENPP1
p-Nitrophenyl thymidine 5′-monophosphate (pNP-TMP) is a synthesized substrate for ENPP1. The ENPP1 enzyme activity assay with pNP-TMP substrate was conducted as follows:
First, in a 60 μl reaction, 7.5 ng purified ENPP1 was mixed with 1.2 μl compounds of Formula (I) (test compound) ranging from 13.7 nM to 10 μM. Incubation of ENPP1 with compounds was set at 25° C. for 10 min. Reactions with DMSO only (with ENPP1 but no compound) gave the fastest reaction (MAX Activity). For each compound dilution, wells with assay buffer (50 mM Tris -HCl, pH8.8, 250 mM NaCl, 0.1 mg/ml BSA) and test compounds but no ENPP1 were included as controls for the subtraction of test compound derived absorbance at 405 nm.
Second, after 10 minutes incubation of ENPP1 and test compound, the assay was initiated by transferring 50 μl of the above mentioned ENPP1/test compound reaction into 50 μl of 1 mM pNP-TMP in assay buffer results in a 100 μl total reaction in non-binding surface clear bottom 96 well plates. Absorbance at 405 nm was recorded immediately in kinetic mode by PerkinElmer 2300 Enspire multimode plate reader.
For each inhibitor, the specific ENPP1 activity was calculated using the following equation: ENPP1 activity (pmol/min/μg)=Adjusted Vmax (OD405 nm/min) X conversion factor (pmol/OD405 nm)/amount of enzyme (μg)
Adjusted Vmax=V0X (Km+(S))/(S). In this assay, Km=232 μM, (S)=500 μM. Adjusted Vmax=1.464 X V0.
V0=(OD405 nm with ENPP1-OD405 nm ENPP1 blank)/minutes. OD405 nm was plotted, with blank subtracted, against time (minutes), the initial linear rate is V0.
The conversion factor (pmol/OD405 nm), was determined by plotting the amount of standard, 4-Nitrophenol (Sigma -Aldrich, Catalog #241326), against absorbance at 405 nm. The slope is the conversion factor. The percent ENPP1 activity for each sample was calculated using the following equation: […]
To determine the IC50 for each compound, compound concentration values and percent enzyme activity values were inserted into GraphPad Prism (GraphPad Prism version 9.0 for Windows, GraphPad Software, La Jolla California USA, www.graphpad.com), and Prism's Transform analysis was used to convert the x-axis values (compound concentration) to logarithms. A sigmoidal variable slope nonlinear regression analysis was performed using the following equation: Y=Bottom+ (Top-Bottom)/(1+10^((Log IC50″X) *HillSlope)).
Ki values for each compound were calculated from the observed IC50 from GraphPad analysis using the Cheng-Prusoff equation: Ki=IC50/(1+(S)/KM). (S) here is 500 μM and KM is determined to be 232 μM.

Ki [nM]	SMILES
10 to 100	CS(=N)(=O)CC1CC2(C1)CN(c1ncnc3c(O)nccc13)C2 (single isomer, unassigned) [Example 2b, ((2-(8-hydroxypyrido[3,4-d]pyrimidin-4-yl)-2-azaspiro[3.3]heptan-6-yl)methyl) (imino)(methyl)-lambda6-sulfanone]
10 to 100	N=[S@](=O)(c1cccc(COc2ccnc3c(OCF)nccc23)c1)C1CC1 (single isomer, unassigned) [Example 42]
< 10	COc1nccc2c(OCc3cc(F)cc([S@](=N)(=O)C4CC4)c3)ccnc12 (single isomer, unassigned) [Example 68]
10 to 100	COc1nccc2c(OCc3cc(F)cc([S@](C)(=N)=O)c3)ccnc12 (single isomer, unassigned) [Example 70]
10 to 100	C[S@@](=N)(=O)c1cccc(COc2ccnc3c(OCF)nccc23)c1 (single isomer, unassigned) [Example 78]
< 10	CS(=N)(=O)CC1CC2(C1)CN(c1ccnc3cnccc13)C2 (stereo not shown) [Example 1, imino(methyl) [[2-(1,7-naphthyridin-4-yl)-2-azaspiro[3.3]heptan-6-yl]methyl]-lambda6-sulfanone]
< 10	COc1nccc2c(N3CC(CCCS(C)(=N)=O)C3)ccnc12 (stereo not shown) [Example 3, imino (3-(1-(8-methoxy-1,7-naphthyridin-4-yl)azetidin-3-yl)propyl)(methyl)-lambda6-sulfanone]
< 10	COc1nccc2c(N3CCC(O)(CS(=N)(=O)C4CC4)CC3)ccnc12 (stereo not shown) [Example 4, cyclopropyl((4-hydroxy-1-(8-methoxy-1,7-naphthyridin-4-yl)piperidin-4-yl)-methyl) (imino)-lambda6-sulfanone]
10 to 100	CS(=N)(=O)c1ccc(COc2ccnc3cnccc23)cc1 (stereo not shown) [Example 7]
10 to 100	COc1nccc2c(OCc3cccc([S@](=N)(=O)C4CC4)c3)ccnc12 [Example 17a, (R)-Cyclopropyl(imino)(3-(((8-methoxy-1,7-naphthyridin-4-yl)oxy)methyl)phenyl)-lambda6-sulfanone]
< 10	COc1nccc2c(N3CCC4(C3)CN(S(C)(=N)=O)C4)ccnc12 (stereo not shown) [Example 44, 8-methoxy-4-(2-(S-methylsulfonimidoyl)-2,6-diazaspiro(3.4)octan-6-yl)-1,7-naphthyridine]
< 10	COc1nccc2c(N3CC4(CCN(S(C)(=N)=O)C4)C3)ccnc12 (stereo not shown) [Example 45, 8-methoxy-4-(6-(S-methylsulfonimidoyl)-2,6-diazaspiro(3.4)octan-2-yl)-1,7-naphthyridine]
< 10	CCOc1nccc2c(N3CCC(O)(CS(C)(=N)=O)CC3)ccnc12 (stereo not shown) [Example 46, ((1-(8-ethoxy-1,7-naphthyridin-4-yl)-4-hydroxypiperidin-4-yl)methyl) (imino)-(methyl)-lambda6-sulfanone]
< 10	COc1nccc2c(Oc3ccc(S(C)(=N)=O)cc3)ccnc12 (stereo not shown) [Example 50, imino (4-((8-methoxy-1,7-naphthyridin-4-yl)oxy)phenyl)(methyl)-lambda6-sulfanone]
100 to 10000	COc1nccc2c(Oc3cccc(S(C)(=N)=O)c3)ccnc12 (stereo not shown) [Example 51, imino (3-((8-methoxy-1,7-naphthyridin-4-yl)oxy)phenyl)(methyl)-lambda6-sulfanone]
10 to 100	CS(=N)(=O)CC1(O)CCN(c2ccnc3c(OC4CC4)nccc23)CC1 (stereo not shown) [Example 52, ((1-(8-cyclopropoxy-1,7-naphthyridin-4-yl)-4-hydroxypiperidin-4-yl)methyl) (imino)(methyl)-lambda6-sulfanone]
100 to 10000	CN=S(C)(=O)N1CCC2(CCN(c3ccnc4c(OC)nccc34)C2)CC1 (stereo not shown) [Example 53, ((2-(8-methoxy-1,7-naphthyridin-4-yl)-2,8-diazaspiro(4.5)decan-8-yl)(methyl)oxo-lambda6-sulfanylidene)(methyl)amine]
100 to 10000	CN=S(C)(=O)N1CCC2(CCN(c3ccnc4c(OC)nccc34)C2)C1 (stereo not shown) [Example 54, ((7-(8-methoxy-1,7-naphthyridin-4-yl)-2,7-diazaspiro(4.4)nonan-2-yl)(methyl)oxo-lambda6-sulfanylidene)(methyl)amine]
100 to 10000	CN=S(=O)(c1cccc(COc2ccnc3c(OC)nccc23)c1)C1CC1 (stereo not shown) [Example 55, cyclopropyl(3-(((8-methoxy-1,7-naphthyridin-4-yl)oxy)methyl)phenyl)(methylimino)-lambda6-sulfanone]
100 to 10000	CN=S(=O)(c1cccc(COc2ncnc3c(OC)nccc23)c1)C1CC1 (stereo not shown) [Example 56, cyclopropyl(3-(((8-methoxypyrido[3,4-d]pyrimidin-4-yl)oxy)methyl)phenyl)-(methylimino)-lambda6-sulfanone]
< 10	CN=S(C)(=O)CC1(O)CCN(c2ccnc3c(OC)nccc23)CC1 (stereo not shown) [Example 57, ((4-hydroxy-1-(8-methoxy-1,7-naphthyridin-4-yl)piperidin-4-yl)methyl)(methyl)-(methylimino)-lambda6-sulfanone]
100 to 10000	CN=S(C)(=O)CC1CC2(C1)CN(c1ccnc3c(OC)nccc13)C2 (stereo not shown) [Example 58, ((2-(8-methoxy-1,7-naphthyridin-4-yl)-2-azaspiro(3.3)heptan-6-yl)methyl-methyl)(methylimino)-lambda6-sulfanone]
< 10	COc1nccc2c(OCc3cc(S(=N)(=O)C4CC4)ccc3F)ccnc12 (stereo not shown) [Example 59, cyclopropyl(4-fluoro-3-(((8-methoxy-1,7-naphthyridin-4-yl)oxy)methyl)-phenyl) (imino)-lambda6-sulfanone]
100 to 10000	N=S(=O)(c1cccc(COc2ccnc3c(OC4CC4)nccc23)c1)C1CC1 (stereo not shown) [Example 60, (3-(((8-cyclopropoxy-1,7-naphthyridin-4-yl)oxy)methyl)phenyl)-(cyclopropyl) (imino)-lambda6-sulfanone]
100 to 10000	CC(C)Oc1nccc2c(OCc3cccc(S(=N)(=O)C4CC4)c3)ccnc12 (stereo not shown) [Example 61, cyclopropyl(imino) (3-(((8-isopropoxy-1,7-naphthyridin-4-yl)oxy)methyl)phenyl)-lambda6-sulfanone]
100 to 10000	CCCOc1nccc2c(OCc3cccc(S(=N)(=O)C4CC4)c3)ccnc12 (stereo not shown) [Example 62, cyclopropyl(imino) (3-(((8-propoxy-1,7-naphthyridin-4-yl)oxy)methyl)phenyl)-lambda6-sulfanone]
10 to 100	CS(=N)(=O)CCC1(O)CCN(c2ccnc3c(OCF)nccc23)CC1 (stereo not shown) [Example 63, (2-(1-(8-(fluoromethoxy)-1,7-naphthyridin-4-yl)-4-hydroxypiperidin-4-yl)ethyl)-(imino)(methyl)-lambda6-sulfanone]
< 10	CS(=N)(=O)CCC1CCN(c2ccnc3c(OCF)nccc23)CC1 (stereo not shown) [Example 65, (2-(1-(8-(fluoromethoxy)-1,7-naphthyridin-4-yl)piperidin-4-yl)ethyl)-(imino)(methyl)-lambda6-sulfanone]
